# Structures can show the parent of a compound that is named as a salt.
# Tested on: IL-2 production
# Assay: Inhibition of IL-2 production in PHA-activated Jurkat cells (ELISA)
# Assay type: cell-based
# Conditions: Homo sapiens, Jurkat, 20 h, PHA 2.5 μg/mL, 20 hours at 37° C., IL-2 by ELISA
# Description: Jurkat cells were placed in a 96 well plate (0.5 million cells per well in 1% FBS medium) then a test compound of this invention was added at different concentrations. After 10 minutes, the cells were activated with PHA (final concentration 2.5 μg/mL) and incubated for 20 hours at 37° C. under CO2. The final volume was 200 μL. Following incubation, the cells were centrifuged and the supernatants collected and stored at −70° C. prior to assaying for IL-2 production. A commercial ELISA kit (IL-2 Eli-pair, Diaclone Research, Besancon, France) was used to detect production of IL-2, from which dose response curves were obtained. The IC50 value was calculated as the concentration at which 50% of maximum IL-2 production after stimulation was inhibited versus a non-stimulation control.
row,IC50,SMILES
1,1 nM,"COC(=O)c1cc(-c2ccc(NC(=O)c3c(F)cccc3F)cc2)c(C)s1 [Compound 1, 4-[4-(2,6-Difluoro-benzoylamino)-phenyl]-5-methyl-thiophene-2-carboxylic acid methyl ester]"
2,3 nM,"COC(=O)c1cc(-c2ccc(NC(=O)c3ccncc3C)cc2)c(C)s1 [Compound 2, 5-Methyl-4-{4-[(3-methyl-pyridine-4-carbonyl)-amino]-phenyl}-thiophene-2-carboxylic acid methyl ester]"
3,3 nM,"Cc1sc(-c2cnco2)cc1-c1ccc(NC(=O)c2c(F)cccc2F)cc1 [Compound 3, 2,6-Difluoro-N-[4-(2-methyl-5-oxazol-5-yl-thiophen-3-yl)-phenyl]-benzamide]"
4,1 nM,"COC(=O)c1cc(C)c(-c2ccc(NC(=O)c3c(F)cccc3F)cc2)s1 [Compound 4, 5-[4-(2,6-Difluoro-benzoylamino)-phenyl]-4-methyl-thiophene-2-carboxylic acid methyl ester]"
5,7 nM,"COC(=O)c1cc(-c2ccc(NC(=O)c3c(F)cccc3F)cc2)c(C)o1 [Compound 8, 4-[4-(2,6-Difluoro-benzoylamino)-phenyl]-5-methyl-furan-2-carboxylic acid methyl ester]"
6,106 nM,"Cc1nc(N2CCOCC2)sc1-c1ccc(NC(=O)c2c(F)cccc2F)cc1 [Compound 9, 2,6-Difluoro-N-[4-(4-methyl-2-morpholin-4-yl-thiazol-5-yl)-phenyl]-benzamide]"
7,237 nM,"Cc1cnccc1C(=O)Nc1ccc(-c2sc(N3CCOCC3)nc2C)cc1 [Compound 10, 3-Methyl-N-[4-(4-methyl-2-morpholin-4-yl-thiazol-5-yl)-phenyl]-isonicotinamide]"
8,1 nM,"Cc1cc(-c2ncco2)sc1-c1ccc(NC(=O)c2c(F)cccc2F)cc1 [Compound 39, 2,6-Difluoro-N-[4-(3-methyl-5-oxazol-2-yl-thiophen-2-yl)-phenyl]-benzamide]"
9,> 1000 nM,"Cc1cc(NC(=O)c2c(F)cccc2F)ccc1-c1nc(C(F)(F)F)cs1 [Compound 91, 2,6-Difluoro-N-[3-methyl-4-(4-trifluoromethyl-thiazole-2-yl)-phenyl]-benzamide]"
10,4 nM,"Cc1cc(-c2ncco2)sc1-c1ccc(NC(=O)c2snnc2C)cc1 [Compound 92, 4-Methyl-[1,2,3]thiadiazole-5-carboxylic acid [4-(3-methyl-5-oxazol-2-yl-thiophen-2-yl)-phenyl]-amide]"
11,3 nM,"Cc1cnccc1C(=O)Nc1ccc(-c2sc(-c3ncco3)cc2C)cc1 [Compound 93, 3-Methyl-N-[4-(3-methyl-5-oxazol-2-yl-thiophen-2-yl)-phenyl]-isonicotinamide]"
12,5.2 nM,"Cc1cnccc1C(=O)Nc1ccc(-c2sc(-c3ccno3)cc2C)cc1 [Compound 94, 3-Methyl-N-[4-(3-methyl-5-isoxazol-5-yl-thiophen-2-yl)-phenyl]-isonicotinamide]"
13,2.1 nM,"Cc1cnccc1C(=O)Nc1ccc(-c2sc(-c3cccnc3)cc2C)cc1 [Compound 96, 3-Methyl-N-[4-(3-methyl-5-pyridin-3-yl-thiophen-2-yl)-phenyl]-isonicotinamide]"
14,7.2 nM,"Cc1cnccc1C(=O)Nc1ccc(-c2sc(-c3cncnc3)cc2C)cc1 [Compound 97, 3-Methyl-N-[4-(3-methyl-5-pyrimidin-5-yl-thiophen-2-yl)-phenyl]-isonicotinamide]"
15,9.3 nM,"Cc1cc(-c2cncnc2)sc1-c1ccc(NC(=O)c2snnc2C)cc1 [Compound 98, 4-Methyl-[1,2,3]thiadiazole-5-carboxylic acid [4-(3-methyl-5-pyrimidin-5-yl-thiophen-2-yl)-phenyl]-amide]"
16,5.2 nM,"Cc1cc(-c2ccncc2)sc1-c1ccc(NC(=O)c2snnc2C)cc1 [Compound 99, 4-Methyl-[1,2,3]thiadiazole-5-carboxylic acid [4-(3-methyl-5-pyridin-4-yl-thiophen-2-yl)-phenyl]-amide, hydrochloride]"
17,4 nM,Cc1cnccc1C(=O)Nc1ccc(-c2sc(-c3ccncc3)cc2C)cc1 [Compound 101]

row,IC50,SMILES
1,22 nM,"Cc1cc(-c2ccno2)sc1-c1ccc(NC(=O)c2cnns2)cc1 [Compound 102, [1,2,3]thiadiazole-5-carboxylic acid [4-(3-methyl-5-isoxazol-5-yl-thiophen-2-yl)-phenyl]-amide]"
2,3 nM,"Cc1cc(-c2ccno2)sc1-c1ccc(NC(=O)c2cccn2C)cc1 [Compound 103, 1-Methyl-1H-pyrrol-2-carboxylic acid [4-(3-methyl-5-isoxazol-5-yl-thiophen-2-yl)-phenyl]-amide]"
3,> 1000 nM,"Cc1cc(-c2ccno2)sc1-c1ccc(NC(=O)c2ccnn2C)cc1 [Compound 104, 1-Methyl-1H-pyrazol-5-carboxylic acid [4-(3-methyl-5-isoxazol-5-yl-thiophen-2-yl)-phenyl]-amide]"
4,7.6 nM,"Cc1cc(-c2ccno2)sc1-c1ccc(NC(=O)c2cnsc2)cc1 [Compound 105, Isothiazol-4-carboxylic acid [4-(3-methyl-5-isoxazol-5-yl-thiophen-2-yl)-phenyl]-amide]"
5,83.8 nM,"Cc1cc(-c2ccno2)sc1-c1ccc(NC(=O)c2csnn2)cc1 [Compound 106, [1,2,3]thiadiazol-4-carboxylic acid [4-(3-methyl-5-isoxazol-5-yl-thiophen-2-yl)-phenyl]-amide]"
6,2.8 nM,"Cc1cncnc1C(=O)Nc1ccc(-c2sc(-c3ccno3)cc2C)cc1 [Compound 107, 5-Methyl-pyrimidine-4-carboxylic acid [4-(3-methyl-5-isoxazol-5-yl-thiophen-2-yl)-phenyl]-amide]"
7,7.5 nM,"Cc1cc(-c2cnco2)sc1-c1ccc(NC(=O)c2scnc2Cl)cc1 [Compound 110, 4-Chloro-thiazol-5-carboxylic acid [4-(3-methyl-5-oxazol-5-yl-thiophen-2-yl)-phenyl]-amide]"
8,8.7 nM,"Cc1cnccc1C(=O)Nc1ccc(-c2sc(-c3nccs3)cc2C)cc1 [Compound 111, 3-Methyl-N-[4-(3-methyl-5-thiazol-2-yl-thiophen-2-yl)-phenyl]-isonicotinamide]"
9,6.7 nM,"Cc1cnccc1C(=O)Nc1ccc(-c2sc(-c3cnco3)cc2Cl)cc1 [Compound 112, 3-Methyl-N-[4-(3-chloro-5-oxazol-5-yl-thiophen-2-yl)-phenyl]-isonicotinamide]"
10,10 nM,"Cc1cnccc1C(=O)Nc1ccc(-c2sc(-c3ccno3)cc2Cl)cc1 [Compound 113, 3-Methyl-N-[4-(3-chloro-5-isoxazol-5-yl-thiophen-2-yl)-phenyl]-isonicotinamide]"
11,11 nM,"O=C(Nc1ccc(-c2sc(-c3ccno3)cc2Cl)cc1)c1ccncc1F [Compound 114, 3-Fluoro-N-[4-(3-chloro-5-isoxazol-5-yl-thiophen-2-yl)-phenyl]-isonicotinamide]"
12,9.6 nM,"Cc1cncnc1C(=O)Nc1ccc(-c2sc(-c3cnco3)cc2C)cc1 [Compound 115, 5-Methyl-pyrimidine-4-carboxylic acid [4-(3-methyl-5-oxazol-5-yl-thiophen-2-yl)-phenyl]-amide]"
13,4.8 nM,"Cc1cc(-c2cnco2)sc1-c1ccc(NC(=O)c2cccn2C)cc1 [Compound 116, 1-Methyl-1H-pyrrol-2-carboxylic acid [4-(3-methyl-5-oxazol-5-yl-thiophen-2-yl)-phenyl]-amide]"
14,48.8 nM,"Cc1cc[nH]c1C(=O)Nc1ccc(-c2sc(-c3ccno3)cc2C)cc1 [Compound 117, 3-Methyl-1H-pyrrol-2-carboxylic acid [4-(3-methyl-5-isoxazol-5-yl-thiophen-2-yl)-phenyl]-amide]"
15,> 1000 nM,"Cc1ncsc1-c1ccc(NC(=O)c2c(F)cccc2F)cc1 [Compound 120, 2,6-Difluoro-N-[4-(4-methyl-thiazole-5-yl)-phenyl]-benzamide]"
16,133 nM,"COC(=O)c1nc(C)c(-c2ccc(NC(=O)c3c(F)cccc3F)cc2)s1 [Compound 121, 2,6-Difluoro-N-[4-(4-methyl-2-methoxycarbonyl-thiazol-5-yl)-phenyl]-benzamide]"
17,1.9 nM,"Cc1sc(-c2ncco2)cc1-c1ccc(NC(=O)c2c(F)cccc2F)cc1 [Compound 122, 2,6-Difluoro-N-[4-(2-methyl-5-oxazol-2yl-thiophen-3-yl)-phenyl]-benzamide]"

# Same assay, conditions: PHA 2.5 μg/mL, 20 hours at 37° C., IL-2 by ELISA
row,IC50,SMILES
1,2.7 nM,"Cc1cnccc1C(=O)Nc1ccc(-c2sc(-c3ncco3)cc2C)cc1 [Compound 109, 3-Methyl-N-[4-(3-methyl-5-oxazol-2-yl-thiophen-2-yl)-phenyl]-isonicotinamide]"
2,6.1 nM,"Cc1cc(-c2ccncc2)sc1-c1ccc(NC(=O)c2snnc2C)cc1 [Compound 118, 4-Methyl-[1,2,3]thiadiazole-5-carboxylic acid [4-(3-methyl-5-pyridin-4-yl-thiophen-2-yl)-phenyl]-amide]"
3,4.8 nM,"Cc1cc(-c2ccccn2)sc1-c1ccc(NC(=O)c2snnc2C)cc1 [Compound 119, 4-Methyl-[1,2,3]thiadiazole-5-carboxylic acid [4-(3-methyl-5-pyridin-2-yl-thiophen-2-yl)-phenyl]-amide]"

# Same assay, conditions: PHA 2.5 μg/mL, 20 hours at 37° C., IL-2 by ELISA, hydrochloride
row,IC50,SMILES
1,4.4 nM,"Cc1cnccc1C(=O)Nc1ccc(-c2sc(-c3ccno3)cc2C)cc1 [Compound 95, 3-Methyl-N-[4-(3-methyl-5-isoxazol-5-yl-thiophen-2-yl)-phenyl]-isonicotinamide, hydrochloride]"
2,10.5 nM,"Cc1cc(-c2ccccn2)sc1-c1ccc(NC(=O)c2snnc2C)cc1 [Compound 100, 4-Methyl-[1,2,3]thiadiazole-5-carboxylic acid [4-(3-methyl-5-pyridin-2-yl-thiophen-2-yl)-phenyl]-amide, hydrochloride]"

# Source: US20070275960A1, “Phenyl and pyridyl compounds for inflammation and immune-related uses” (Synta Pharmaceuticals Corp., priority 2006, published 2007)
